Columns and labels:
[1] = system: ES-2 (ovarian adenocarcinoma); assay: In vitro cytotoxicity, sulforhodamine B assay; type: cell-based, human; settings: 72 h
Description: (§1) Determination of the cytotoxic activity of compounds tested was performed separately in the normoxia or hypoxia conditions to reveal their potentially bioreductive properties. The experiment was carried out on three human cancer cell lines: MCF-7 breast, ES-2 ovarian and A549 lung adenocarcinoma as well as normal murine embryonic fibroblast BALB/3T3 cell line. In order to facilitate the preparation of solutions of the tested compounds, their initial solutions for dilution were made by dissolving the compounds in acetone. For this purpose, it was not possible to use more polar aprotic solvents (DMSO, DMF) due to the rapid isomerization of some of the tested complexes under their influence.
All the cell lines were cultured at 37 °C in a humid atmosphere containing 5% CO2. Additionally, in the case of cytotoxicity assay with hypoxic conditions, the cells (MCF-7, ES-2, A549) were maintained at 37 °C in a humid atmosphere containing 5% CO2 and 1% O2 during the entire experiment.
Twenty-four hours before adding the tested compounds, all cell lines were seeded in 96-well plates ([…] AG & Co, Nümbrecht Germany) in an appropriate media with 10^4 cells per well. All cell lines were exposed to each compound tested at four different concentrations for 72 h. […] Additionally, all cell lines were exposed to acetone (Avantor Performance Materials, Gliwice, Poland) (the solvent used for tested compounds) at concentrations corresponding to those present in tested compounds’ dilutions.
(§2) After 72 h of cell incubation with the compounds tested, the sulforhodamine B (SRB) assay was performed as described by Shekan et al. with minor modifications. The cells were fixed in situ by adding 50 µL per well of cold 50% trichloroacetic acid (Avantor Performance Materials, Gliwice, Poland) and were incubated at 4 °C for one hour. Following that, wells were washed five times with water and air dried. Next, 50 µL of 0.4% solution of sulforhodamine B (Sigma-Aldrich, Steinheim, Germany) in 1% acetic acid (Avantor Performance Materials, Gliwice, Poland) were added to each well and plates were incubated at room temperature for 0.5 h. After incubation time, the unbound dye was removed by washing plates five times with 1% acetic acid, whereas stains bound to cells was solubilized with 10 mM Tris base (Sigma-Aldrich, Steinheim, Germany). The absorbance of each solution was read by the Multiskan RC photometer (Labsystems Diagnostics Oy, Vantaa, Finland) at a 540 nm wavelength. Results are presented as mean IC50 (concentration of the compound tested that inhibits cell proliferation by 50%) ± standard deviation. IC50 values were calculated for each experiment on the basis of four different concentrations using Cheburator software, as described by Nevozhay. The tested compounds at each concentration were tested in triplicates in a single experiment and each experiment was repeated at least three times independently.

[2] = logP by shake-flask method (n-octanol / 0.9% NaCl, Pt by ICP-OES); type: physicochemical; settings: octanol/water, n = 4
Description: An important factor for the pharmacokinetics and the cellular accumulation of the investigated complexes, their lipophilicity was determined by measuring octanol/water partition coefficients (logP) with the shake-flask method. The logP determination was carried out based on a previously described procedure, modified by us to obtain more accurate and repeatable results.
Weighted amounts of the tested platinum complex were suspended by 10 min sonification in 0.9% NaCl water solution, which was previously saturated with n-octanol, and mixed by shaking for 1 h. A simultaneously similar procedure was performed using 5 mL of n-octanol pre-saturated with 0.9% NaCl. Afterward, both suspensions were mixed together, shaken for an additional 1 h, and centrifuged for 5 min. After phase separation and evaporation in vacuo of 1 mL of sample to dryness, the final concentration of Pt was determined by ICP-OES (λ = 265.945 nm) and the partition coefficients were calculated. For the analysis, all samples were dissolved 1:1000 in 2.5% HCl. Each measurement was repeated four times and the final logP was calculated as the arithmetic mean of the four values.

[3] = system: BALB/3T3 (murine embryonic fibroblast); assay: In vitro cytotoxicity, sulforhodamine B assay, normal cells; type: cell-based; settings: for IC50: BALB/3T3 normal cells, normoxia, 72 h
Description: as §1, with “acetone.” for “acetone. For this purpose, it was not possible to use more polar aprotic solvents (DMSO, DMF) due to the rapid isomerization of some of the tested complexes under their influence.”
All cell lines were exposed to each compound tested at four different concentrations for 72 h. […] Additionally, all cell lines were exposed to acetone (Avantor Performance Materials, Gliwice, Poland) (the solvent used for tested compounds) at concentrations corresponding to those present in tested compounds’ dilutions.
as §2, with “Results are presented as mean IC50 (concentration of the compound tested that inhibits cell proliferation by 50%) ± standard deviation.” left out

MCF-7 cells = assay: Total cellular platinum uptake (ICP OES); type: cell-based, human; settings: MCF-7, 4 h exposure, 10 µM
Description: It is necessary to strongly emphasize that the underlined values have a statistically significant lack of variance homogeneity (Fisher–Snedecor’s F-test, Fα/2) with respect to reference drug variance, so Aspin–Welch’s t-test was applied in these cases. […] For ionic compound 8, platinum uptake value was not determined due to Pt concentrations in the cell lysates being below the instrument detection limit (IDL = 10 μg/kg) specified by the manufacturer for the device used.
Cultured MCF-7 cells were seeded at a density of 4 × 10^5 cells/well of culture medium on a 6-well plate (Corning, NY, USA) to a final volume of 2.5 mL. […] The wells without MCF-7 cells were filled with 1 mL of culture medium-containing compound tested to act as a reference for nonspecific platinum complex adsorption on the surface of the well. After incubation, all wells were washed twice with 2 mL of cold PBS, filled with 400 μL of hot (ca 90 °C) 65% nitric acid, and maintained to stand for 2 h. All wells were finally filled with 1600 μL of water and this solution was collected and analyzed using iCAP 7400 Duo ICP OES instrument (Thermo Fisher Scientific) using the plasma axial view (10 s) at λ = 265.945 nm. The amount of Pt per cell was calculated by subtracting the amount of Pt found in the blank well from the amount of Pt found in the cell-containing wells and normalized to the average number of cells per well. The mean and SD values were calculated on the basis of 4 measurements.

Structure (SMILES)	IC50 ([1]; ES-2, hypoxia (1% O2))	IC50 ([1]; ES-2, normoxia)	logP ± SD [2]	IC50 [3]	Total Cellular Platinum Uptake in MCF-7 Cells (± SD) (MCF-7 cells)	selectivity index (SI; ratio of cytotoxic concentration for healthy cells to that for cancer cells) ([3]; BALB/3T3 vs MCF-7, ES-2, A549, range)
Cn1cc([N+](=O)[O-])c[n+]1[Pt@SP2-2]([Cl])([Cl])[n+]1cc([N+](=O)[O-])cn1C [Compound 1, cis-dichloridobis(1-methyl-4-nitropyrazole)platinum(II)]	109 ± 22.6 µM	29.4 ± 24.9 µM	−0.35 ± 0.04	> 100 µM	27 ± 6 ng Pt/10^6 Cells	–
Cn1cc([N+](=O)[O-])c[n+]1[Pt@SP3-2]([Cl])([Cl])[n+]1cc([N+](=O)[O-])cn1C [Compound 2, trans-dichloridobis(1-methyl-4-nitropyrazole)platinum(II)]	1.1 ± 0.3 µM	0.7 ± 0.7 µM	1.43 ± 0.16,	8.19 ± 2.9 µM	32 ± 6 ng Pt/10^6 Cells	2.2–11.7
Cn1c([N+](=O)[O-])cc[n+]1[Pt@SP2-2]([Cl])([Cl])[n+]1ccc([N+](=O)[O-])n1C [Compound 3, cis-dichloridobis(1-methyl-5-nitropyrazole)platinum(II)]	51.9 ± 16.7 µM	75.4 ± 12.3 µM	−0.31 ± 0.04	> 100 µM	82 ± 11 ng Pt/10^6 Cells	–
Cn1c([N+](=O)[O-])cc[n+]1[Pt@SP3-2]([Cl])([Cl])[n+]1ccc([N+](=O)[O-])n1C [Compound 4, trans-dichloridobis(1-methyl-5-nitropyrazole)platinum(II)]	32.3 ± 27 µM	41.1 ± 7.1 µM	0.46 ± 0.00	74.4 ± 23.2 µM	83 ± 12 ng Pt/10^6 Cells	–

Reference: article PMC7768359, “Synthesis of Platinum(II) Complexes with Some 1-Methylnitropyrazoles and In Vitro Research on Their Cytotoxic Activity” (Pharmaceuticals, 2020)
